Measured values as given in US11939352B2, “Potent aromatase inhibitors through fungal transformation of anti-cancer drug testolactone: an approach towards treatment of breast cancer” (priority 2021, dated 2024).

Target: T1, human placental microsomal aromatase (Homo sapiens, UniProt P11511)
T1 construct: was determined in a pool of human fresh placental microsomes in vitro; from tissue; host or cells: human placenta (pooled fresh microsomes)
T1 sequence (P11511 1-503): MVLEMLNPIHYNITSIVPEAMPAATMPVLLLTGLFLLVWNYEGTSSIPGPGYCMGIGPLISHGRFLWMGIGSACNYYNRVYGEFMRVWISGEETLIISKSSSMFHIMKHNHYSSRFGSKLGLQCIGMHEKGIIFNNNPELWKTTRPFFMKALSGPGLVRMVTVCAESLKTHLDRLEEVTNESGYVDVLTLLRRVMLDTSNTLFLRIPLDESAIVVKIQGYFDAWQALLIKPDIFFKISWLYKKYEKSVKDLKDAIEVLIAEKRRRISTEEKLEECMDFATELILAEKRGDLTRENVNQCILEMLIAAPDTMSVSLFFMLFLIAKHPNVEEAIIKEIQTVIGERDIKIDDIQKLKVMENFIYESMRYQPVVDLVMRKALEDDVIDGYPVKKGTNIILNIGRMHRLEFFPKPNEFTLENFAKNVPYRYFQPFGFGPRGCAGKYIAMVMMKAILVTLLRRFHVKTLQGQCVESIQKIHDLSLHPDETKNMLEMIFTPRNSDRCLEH
Assay: Human placental aromatase inhibition assay
Type: biochemical

Compound	IC50 [nM]
C[C@]12CC[C@@H](O)C[C@H]1CC[C@@H]1[C@@H]2[C@@H](O)C[C@]2(C)OC(=O)CC[C@@H]12 [Compound 3, 3α,11β-dihydroxy-13,17-seco-5β-androsta-17,13α-lactone]	9.23 ± 1.3
C[C@]12CC[C@H]3[C@@H](CC[C@]45O[C@H]4[C@H](O)C=C[C@]35C)[C@@H]1CCC(=O)O2 [Compound 5, 4β,5β-epoxy-3α-hydroxy-13,17-secoandrosta-1-eno-17,13α-lactone]	820 ± 59
C[C@]12C=CC(=O)C=C1CC[C@@H]1[C@@H]2CC[C@]2(C)OC(=O)CC[C@@H]12 [Compound 1, 3-oxo-13,17-secoandrosta-1,4-dieno-17,13α-lactone, reference compound]	716 ± 31
C[C@]12CC[C@H]3[C@@H](CC[C@]45O[C@H]4[C@@H](O)C=C[C@]35C)[C@@H]1CCC(=O)O2 [Compound 4, 4β,5β-epoxy-3β-hydroxy-13,17-secoandrosta-1-eno-17,13α-lactone]	10400 ± 500
C[C@]12C=CC(=O)C[C@H]1C[C@H](O)[C@@H]1[C@@H]2CC[C@]2(C)OC(=O)CC[C@@H]12 [Compound 2, 7β-hydroxy-3-oxo-13,17-seco-5β-androsta-1-eno-17,13α-lactone]	8.63 ± 0.4
